Test results as given in US9802899B2, “Heterocyclic compounds as pesticides” (BAYER CROPSCIENCE AG, priority 2012, dated 2017).
Like-named read-outs stand apart in the source and are kept apart here. One block for each molecule: values may come before it.

Experiments:
[1] = tested on: Myzus persicae; assay: Myzus persicae spray test (MYZUPE); format: in vivo; settings: Chinese cabbage leaf discs, after 6 days
Protocol: Myzus persicae Spray Test (MYZUPE)
Solvents: 78 parts by weight of acetone • • 1.5 parts by weight of dimethylformamide
(§1) Emulsifier: 0.5 part by weight of alkylaryl polyglycol ether
(§2) To produce a suitable preparation of active compound, 1 part by weight of active compound is mixed with the stated amounts of solvents and emulsifier, and the concentrate is diluted with emulsifier-containing water to the desired concentration.
Discs of Chinese cabbage leaves (Brassica pekinensis) infested by all stages of the green peach aphid (Myzus persicae) are sprayed with an active compound preparation of the desired concentration.
After 6 days, the efficacy in % is determined 100% here means that all of the aphids have been killed; 0% means that no aphids have been killed.

[2] = Determination of the log P values by HPLC (formic acid method); format: physicochemical; settings: reversed-phase column (C 18), acidic range (pH 3.4), 55° C.; for chromatographic logP: reversed-phase HPLC column (C 18)
Protocol: 1) Description of Method for Determination of the Log P Values (Formic Acid Method)
Eluents for determination in the acidic range (pH 3.4):
Eluent A: acetonitrile+1 ml of formic acid/liter. Eluent B: water+0.9 ml of formic acid/liter.
The lambda max values were determined in the maxima of the chromatographic signals using the UV spectra from 200 nm to 400 nm.

[3] = tested on: Haemonchus contortus; assay: Haemonchus contortus test (HAEMCO); format: in vivo; settings: application rate 4 ppm; larvae; after 5 days
Protocol: Haemonchus contortus Test (HAEMCO)
(§3) Solvent: dimethyl sulphoxide
(§4) To produce a suitable preparation of active compound, 10 mg of active compound are mixed with 0.5 ml of dimethyl sulphoxide, and the concentrate is diluted with Ringer solution to the desired concentration.
Vessels containing the active compound preparation of the desired concentration are populated with about 40 larvae of the red stomach worm (Haemonchus contortus).
(§5) After 5 days, the kill in % is determined 100% means that all of the larvae have been killed; 0% means that none of the larvae have been killed.

[4] = tested on: Spodoptera frugiperda; assay: Spodoptera frugiperda spray test (SPODFR); format: in vivo; settings: caterpillars on maize leaf discs, after 7 days
Protocol: Spodoptera frugiperda Spray Test (SPODFR)
(§6) Solvents: 78.0 parts by weight of acetone • • 1.5 parts by weight of dimethylformamide
as §1, §2
Leaf discs of maize (Zea mays) are sprayed with an active compound formulation of the desired concentration and, after drying, populated with caterpillars of the armyworm (Spodoptera frugiperda).
After 7 days, the efficacy in % is determined. 100% means that all of the caterpillars have been killed; 0% means that none of the caterpillars have been killed.

[5] = tested on: Ctenocephalides felis; assay: Ctenocephalides felis oral test (CTECFE); format: in vivo; settings: application rate 100 ppm in citrated cattle blood; adult fleas; after 2 days
Protocol: Ctenocephalides felis—Oral Test (CTECFE)
Solvent: 1 part by weight of dimethyl sulphoxide
To produce a suitable preparation of active compound, 10 mg of active compound are mixed with 0.5 ml of dimethyl sulphoxide. A portion of the concentrate is diluted with citrated cattle blood, and the desired concentration is prepared.
About 20 unfed adult fleas (Ctenocephalides felis) are placed into a chamber which is closed at the top and bottom with gauze. A metal cylinder whose bottom end is closed with a parafilm is placed onto the chamber. The cylinder contains the blood/active compound preparation, which can be imbibed by the fleas through the Parafilm membrane.
After 2 days, the kill in % is determined 100% means that all fleas have been killed; 0% means that none of the fleas have been killed.

[6] = tested on: Phaedon cochleariae; assay: Phaedon cochleariae spray test (PHAECO); format: in vivo; settings: foliar, 168 h, application rate 500 g/ha, larvae on Chinese cabbage leaf discs, after 7 days, read-out: efficacy
Protocol: Phaedon cochleariae Spray Test (PHAECO)
as §6, §1, §2
After 7 days, the efficacy in % is determined. 100% means that all of the beetle larvae have been killed; 0% means that none of the beetle larvae have been killed.

[7] = tested on: Cooperia curticei; assay: Cooperia curticei test (COOPCU); format: in vivo
Protocol: Cooperia curticei Test (COOPCU)
as §3, §4
Vessels containing the active compound preparation of the desired concentration are populated with about 40 nematode larvae (Cooperia curticei).
as §5

[8] = tested on: Lucilia cuprina larvae; assay: Lucilia cuprina test (LUCICU); format: in vivo; settings: application rate 100 ppm; larvae on treated horse meat; after 2 days
Protocol: Lucilia cuprina Test (LUCICU)
as §3
(§7) To produce a suitable preparation of active compound, 10 mg of active compound are mixed with 0.5 ml of dimethyl sulphoxide, and the concentrate is diluted with water to the desired concentration.
Vessels containing horse meat treated with the active compound preparation of the desired concentration are populated with about 20 Lucilia cuprina larvae.
After 2 days, the kill in % is determined 100% means that all of the larvae have been killed; 0% means that none of the larvae have been killed.

[9] = tested on: Boophilus microplus; assay: Boophilus microplus test (DIP); format: in vivo; settings: application rate 100 ppm, after 7 days by laying of fertile eggs, 100% = no fertile eggs
Protocol: Boophilus microplus Test (DIP)
Test animals: adult engorged Boophilus microplus females of the SP-resistant Parkhurst strain
as §3
10 mg of active compound are dissolved in 0.5 ml of dimethyl sulphoxide. For the purpose of preparing a suitable formulation, the active compound solution is diluted with water to the concentration desired in each case.
This active compound preparation is pipetted into tubes. 8-10 ticks are transferred into a further tube with holes. The tube is immersed into the active compound formulation, and all ticks are completely wetted. After the liquid has run out, the ticks are transferred onto filter discs in plastic dishes and stored in a climate-controlled room.
The activity is assessed after 7 days by laying of fertile eggs. Eggs whose fertility is not visible from the outside are stored in a climate-controlled cabinet until the larvae hatch. An efficacy of 100% means that none of the ticks has laid any fertile eggs.

[10] = tested on: Meloidogyne incognita; assay: Meloidogyne incognita test (MELGIN); format: in vivo; settings: Meloidogyne incognita, 336 h; application rate 20 ppm; lettuce in sand; after 14 days; read-out: nematicidal effect (formation of galls)
Protocol: Meloidogyne incognita Test (MELGIN)
Solvent: 125.0 parts by weight of acetone
To prepare a suitable active compound preparation, 1 part by weight of active compound is mixed with the stated amount of solvent and the concentrate is diluted with water to the desired concentration.
Vessels are filled with sand, active compound solution, an egg/larvae suspension of the root-knot nematode (Meloidogyne incognita) and lettuce seeds. The lettuce seeds germinate and the plants develop. On the roots, galls are formed.
After 14 days, the nematicidal effect in % is determined by the formation of galls. 100% means that no galls have been found; 0% means that the number of galls on the treated plants corresponds to the untreated control.

[11] = tested on: Musca domestica; assay: Musca domestica test (MUSCDO); format: in vivo; settings: application rate 100 ppm; adult flies; after 2 days
Protocol: Musca domestica Test (MUSCDO)
as §3, §7
Vessels containing a sponge treated with the active compound formulation of the desired concentration are populated with adult Musca domestica.
After 2 days, the kill in % is determined. 100% means that all of the flies have been killed; 0% means that none of the flies have been killed.

[12] = Cooperia curticei, 120 h, read-out: efficacy (kill)

SMILES: O=C(Nc1cnn(-c2c(F)cccc2F)n1)c1c(F)cccc1C(F)(F)F [Compound I-2-39]
- efficacy ([1]; application rate 500 g/ha): 90%
- log P [2]: 2.88

SMILES: O=C(Nc1ccn(-c2cncc(F)n2)n1)c1c(F)cccc1F [Compound I-1-403]
- efficacy ([4]; application rate 500 g/ha): 100%
- log P [2]: 2.32

SMILES: O=C(Nc1ccn(-c2c(F)cccc2F)n1)c1ccccc1[N+](=O)[O-] [Compound I-1-86]
- efficacy ([1]; application rate 20 g/ha): 90%
- log P [2]: 2.20

SMILES: N#CCN(C(=O)c1ccccc1Cl)c1ccn(-c2ccccc2Cl)n1 [Compound I-1-25]
- efficacy ([1]; application rate 500 g/ha): 80%
- log P [2]: 3.04

SMILES: O=C(Nc1nn(-c2ccccc2Cl)cc1I)c1ccccc1C(F)(F)F [Compound I-1-17, N-[4-Iodo-1-(2-chlorophenyl)-1H-pyrazol-3-yl]-2-(trifluoromethyl)benzamide]
- pest or weed control at 500 g/ha [6]: 100%
- efficacy ([4]; application rate 500 g/ha): 83%
- chromatographic logP [2]: 3.16

SMILES: COc1ccccc1C(=O)Nc1ccn(-c2c(F)cccc2F)n1 [Compound I-1-280]
- efficacy ([1]; application rate 500 g/ha): 90%
- log P [2]: 2.75

SMILES: O=C(Nc1ccn(-c2cc(F)ccc2F)n1)c1sccc1I [Compound I-1-221]
- efficacy (kill) ([7]; application rate 4 ppm, nematode larvae, after 5 days): 90%
- log P [2]: 3.57
- efficacy (kill) [3]: 90%

SMILES: O=C(Nc1cnn(-c2ccccc2Cl)n1)c1ccccc1C(F)(F)F [Compound I-2-1, N-[2-(2-Chlorophenyl)-2H-1,2,3-triazol-4-yl]-2-(trifluoromethyl)benzamide]
- pest or weed control at 4 ppm [7, 12]: 100%
- pest or weed control at 500 g/ha [6]: 100%
- efficacy (kill) [5]: 90%
- chromatographic logP [2]: 3.02
- efficacy [9]: 100%
- efficacy (kill) [3]: 80%

SMILES: O=C(Nc1ccn(-c2cc(Cl)ccc2Cl)n1)c1ccccc1Cl [Compound I-1-118]
- efficacy ([4]; application rate 100 g/ha): 83%
- log P [2]: 3.36

SMILES: O=C(Nc1ccn(-c2c(F)cccc2F)n1)c1ccccc1Br [Compound I-1-82]
- efficacy (kill) [8]: 95%
- log P [2]: 2.59
- efficacy [9]: 80%

SMILES: CS(=O)(=O)c1ccccc1C(=O)Nc1ccn(-c2c(F)cccc2F)n1 [Compound I-1-80]
- efficacy ([1]; application rate 500 g/ha): 90%
- log P [2]: 1.95

SMILES: O=C(Nc1nn(-c2ccccc2Cl)cc1Cl)c1ccccc1I [Compound I-1-34]
- efficacy ([4]; application rate 500 g/ha): 83%
- log P [2]: 3.10

SMILES: O=C(Nc1nn(-c2ccccc2Cl)cc1Br)c1ccccc1Cl [Compound I-1-29]
- efficacy ([4]; application rate 500 g/ha): 83%
- log P [2]: 2.99

SMILES: O=C(Nc1ccn(-c2c(F)cccc2F)c1)c1ccccc1C(F)(F)F [Compound I-3-1, N-[1-(2,6-Difluorophenyl)-1H-pyrrol-3-yl]-2-(trifluoromethyl)benzamide]
- efficacy (kill) [8]: 80%
- pest or weed control at 20 ppm [7, 12]: 100%
- pest or weed control at 500 g/ha [6]: 100%
- chromatographic logP [2]: 2.96
- pest or weed control at 20 ppm [10]: 90%

SMILES: O=C(Nc1ccn(-c2ccccc2Cl)n1)c1ccccc1Cl [Compound I-1-20, 2-Chloro-N-[1-(2-chlorophenyl)-1H-pyrazol-3-yl]benzamide]
- efficacy (kill) [8]: 90%
- pest or weed control at 100 ppm ([7]; Cooperia curticei, 120 h, application rate 100 ppm, nematode larvae, after 5 days, read-out: efficacy (kill)): 90%
- pest or weed control at 500 g/ha [6]: 100%
- chromatographic logP [2]: 2.8
- pest or weed control at 20 ppm [10]: 90%

SMILES: O=C(Nc1ccn(-c2cccc(F)c2F)n1)c1ccccc1Br [Compound I-1-63, 2-Bromo-N-[1-(2,3-difluorophenyl)-1H-pyrazol-3-yl]benzamide]
- efficacy (kill) [8]: 80%
- pest or weed control at 20 ppm ([7]; Cooperia curticei, 120 h, application rate 20 ppm, nematode larvae, after 5 days, read-out: efficacy (kill)): 90%
- pest or weed control at 500 g/ha [6]: 100%
- efficacy ([1]; application rate 500 g/ha): 90%
- chromatographic logP [2]: 2.97

SMILES: N#CCN(C(=O)c1ccccc1C(F)(F)F)c1ccn(-c2c(F)cccc2F)n1 [Compound I-1-259]
- efficacy ([4]; application rate 500 g/ha): 100%
- log P [2]: 2.90

Second part, led by results:

- log P [2]: 2.26
SMILES: O=C(Nc1cnn(-c2ncccc2F)n1)c1c(F)cccc1C(F)(F)F [Compound I-2-49]
- efficacy (kill) [3]: 90%

- log P [2]: 2.14
SMILES: O=C(Nc1cnn(-c2ncccc2F)n1)c1ccccc1I [Compound I-2-51]
- efficacy (kill) [3]: 80%

- log P [2]: 2.44
SMILES: O=C(Nc1cnn(-c2ncccc2Cl)n1)c1ccsc1I [Compound I-2-58]
- efficacy ([1]; application rate 500 g/ha): 90%

- log P [2]: 2.22
SMILES: O=C(Nc1ccn(-c2ncccc2F)n1)c1ccccc1I [Compound I-1-131]
- efficacy (kill) [5]: 90%

- log P [2]: 2.81
SMILES: O=C(Nc1cnn(-c2c(F)cccc2F)n1)c1ccccc1I [Compound I-2-41]
- efficacy ([4]; application rate 500 g/ha): 100%

- log P [2]: 2.21
SMILES: O=C(Nc1ccn(-c2ncccc2Cl)n1)c1ccccc1Cl [Compound I-1-136]
- efficacy ([4]; application rate 500 g/ha): 100%

- log P [2]: 2.38
SMILES: O=C(Nc1cnn(-c2ncccc2Cl)n1)c1ccccc1C(F)(F)F [Compound I-2-10]
- efficacy (kill) [5]: 90%

- log P [2]: 2.24
SMILES: O=C(Nc1ccn(-c2ncccc2F)n1)c1ccccc1C(F)(F)F [Compound I-1-128]
- efficacy (kill) [5]: 85%

- log P [2]: 2.53
SMILES: Cc1cc(NC(=O)c2ccccc2I)nn1-c1ccccc1Cl [Compound I-1-35]
- efficacy ([4]; application rate 500 g/ha): 100%

- log P [2]: 2.45
SMILES: O=C(Nc1ccn(-c2ncc(F)cc2F)n1)c1ccccc1I [Compound I-1-145]
- efficacy (kill) [8]: 90%
- efficacy ([1]; application rate 500 g/ha): 90%

- log P [2]: 1.98
SMILES: O=C(Nc1ccn(-c2ncccc2Cl)n1)c1cccnc1C(F)(F)F [Compound I-1-562]
- efficacy (kill) [11]: 90%

- log P [2]: 1.83
SMILES: O=C(Nc1ccn(-c2ncccc2F)n1)c1cccnc1C(F)(F)F [Compound I-1-133]
- efficacy ([1]; application rate 500 g/ha): 90%
